Molecules are shown by their SMILES.

The test system of one data set is MAO-B. To be noted: at high concentrations 100 µM; cited from earlier work.
Data set [1] addresses T1, hMAO-A (Homo sapiens, UniProt P21397).
T1 construct: host or cells: insect cells (BTI-TN-5B14), recombinant baculovirus
T1 sequence (P21397 1-527): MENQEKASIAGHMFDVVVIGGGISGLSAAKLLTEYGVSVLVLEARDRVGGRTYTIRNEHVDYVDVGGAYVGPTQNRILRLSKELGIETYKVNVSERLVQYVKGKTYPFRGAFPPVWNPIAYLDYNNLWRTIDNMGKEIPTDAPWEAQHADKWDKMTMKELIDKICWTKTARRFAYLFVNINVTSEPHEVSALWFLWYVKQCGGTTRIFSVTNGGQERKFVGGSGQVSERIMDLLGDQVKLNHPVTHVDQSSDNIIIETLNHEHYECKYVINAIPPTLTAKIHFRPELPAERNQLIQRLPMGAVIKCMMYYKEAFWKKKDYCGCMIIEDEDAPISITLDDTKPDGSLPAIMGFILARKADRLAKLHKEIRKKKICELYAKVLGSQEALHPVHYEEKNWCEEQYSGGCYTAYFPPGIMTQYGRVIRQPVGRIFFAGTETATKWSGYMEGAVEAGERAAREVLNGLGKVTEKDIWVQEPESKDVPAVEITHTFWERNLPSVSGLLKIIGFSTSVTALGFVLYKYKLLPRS
The experiment in a line: hMAO-A inhibition, Amplex Red fluorometric assay.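 On all read-outs here: recombinant human MAO-A and MAO-B from baculovirus-infected insect cell microsomes, H2O2 formation detected fluorometrically via Amplex Red with horseradish peroxidase, background from enzyme-free wells subtracted, distilled water negative control.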 The format is biochemical. The following applies: for Selectivity index: IC50 (MAO-A)/IC50 (MAO-B); for IC50: recombinant hMAO-A, p-tyramine substrate, mean SEM.
Description: (§3) The biological hMAO activity evaluation of the test drugs was examined by quantifying their action on the generation of H2O2 by p-tyramine (general substrate for hMAO-B and hMAO-A), utilizing the Amplex Red MAO assay kit (Sigma USA) and MAO isoforms (microsomal) obtained from insect cells (BTI-TN-5B14) expressed as recombinant baculovirus consisting cDNA probes for hMAO-A or hMAO-B. Reactions were monitored by thin layer chromatography TLC executed over silica gel precoated plates (0.25 mm) purchased from Merck, envisioned of single spots was carried in iodine and UV chambers, in mobile media TLC- Benzene:Chloroform (7:3).
(§4) All synthesized compounds were evaluated for their capability to inhibit the MAO-A and MAO-B isoforms of human MAO by a fluorometric method. The MAO inhibitory property of the test compounds was examined with the recombinant human enzymes using an Amplex Red Monoamine Oxidase Assay Kit (Sigma USA). The incessant peroxidase-linked photometric assay was performed on the fluorometer. […] Distilled water was used as a negative control. In brief, 0.1 mL of sodium phosphate buffer (0.05 M, pH 7.4) with the test new compounds/reference inhibitors in different concentrations and sufficient quantity of recombinant hMAO-A or hMAO-B requisite and in step to complete our investigational protocol with the equal reaction velocity, (hMAO-A: 1.1 mg protein; explicit activity: 150 nmol of p-tyramine oxidized to p-hydroxyphenylacetaldehyde/min/mg protein; hMAO-B: 7.5 mg protein; explicit activity: 22 nmol of p-tyramine changed/min/mg protein) were incubated for 15 min at 37 °C, placed in the dark fluorometric compartment. After incubation, the effect was attained through the addition of 200 mM Amplex Red reagent (final concentrations), 1 mM p-tyramine, and 1 U/mL horseradish peroxidase. Finally, the generation of hydrogen peroxide and, subsequently, of resorufin was measured at 37 °C in fluorescence reader (λemission, 585 nm, λexcitation, 530 nm) after 15 min, by the time fluorescence amplified linearly. All the control experiments were performed concurrently by changing the reference inhibitors and test compounds with suitable dilutions in the solvents. Moreover, the activity of abovementioned evaluated compounds to alter the fluorescence produced in the combination reaction by (e.g. for reacting with Amplex Red reagent directly) non-enzymatic inhibition was identified by addition of these compounds to solutions having just the Amplex Red reagent in a sodium phosphate buffer. […] The fluorescence reading was computed by subtraction of the background activity and was evaluated from wells with all components not including the hMAO isoforms that was substituted by a sodium phosphate buffer solution. All data was processed in Microsoft Excel, to calculate IC50 values.

Data set [2] has as its target T2, hMAO-B (Homo sapiens, UniProt P27338).
T2 construct: host or cells: insect cells (BTI-TN-5B14), recombinant baculovirus
T2 sequence (P27338 1-520): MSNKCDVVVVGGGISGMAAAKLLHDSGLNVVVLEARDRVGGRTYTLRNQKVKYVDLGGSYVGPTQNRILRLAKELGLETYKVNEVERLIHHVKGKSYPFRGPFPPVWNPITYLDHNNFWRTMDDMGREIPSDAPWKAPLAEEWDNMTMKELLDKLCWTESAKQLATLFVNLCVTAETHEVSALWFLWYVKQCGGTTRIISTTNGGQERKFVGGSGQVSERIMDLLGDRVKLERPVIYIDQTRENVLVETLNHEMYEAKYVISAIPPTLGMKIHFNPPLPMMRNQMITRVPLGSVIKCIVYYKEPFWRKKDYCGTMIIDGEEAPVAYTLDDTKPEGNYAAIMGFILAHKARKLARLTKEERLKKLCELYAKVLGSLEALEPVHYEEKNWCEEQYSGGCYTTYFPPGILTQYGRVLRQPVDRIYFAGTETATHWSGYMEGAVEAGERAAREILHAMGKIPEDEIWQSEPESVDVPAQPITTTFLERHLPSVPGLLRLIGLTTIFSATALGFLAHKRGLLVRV
Briefly: hMAO-B inhibition, Amplex Red fluorometric assay. Format: biochemical. The following applies: recombinant hMAO-B, p-tyramine substrate; mean SEM.
Description: as §3, §4

A short description of data set [3]: DPPH radical scavenging assay. The following applies: mean ± SEM, n = 3. The method, then: DPPH (2,2-diphenyl-1-picryl-hydrazyl-hydrate) free radical process is an antioxidant assay based on electron-transfer that turns violet color in ethanol. The antioxidant activity was based on free radical scavenging effect towards stable DPPH• radical upon spectrophotometric reaction according to the method reported in the literature. Briefly, solutions of synthesized compounds were prepared in fifty milliliters of various concentrations (25, 50, 75, and 100) µg/mL dissolved in methanol, was added to 5 mL of a 0.004% methanol solution of DPPH. The stock solution was prepared with 0.01% DPPH• in ethanol/water (1:1). While sample solutions were prepared as 5 mL DPPH• solution was mixed with 5 mL ascorbic acid solution then shaken vigorously and kept in the dark at 37 °C. The samples were incubated at the 37 °C temperature for 30 min in the dark chamber subsequently, absorbance was measured. The marketable recognized antioxidant, ascorbic acid was utilized for contrast or as a positive control. Initially, the blank spectrum for ethanol/water was recorded subsequently the spectrophotometric titration was carried out with various concentrations of synthesized compounds. The absorbance was recorded at 517 nm with UV/Vis Epoch ELISA reader, and antioxidant activity was measured as a decrease in absorbance of DPPH•. The IC50 values of free radical DPPH, based on control reading were calculated by the following equation. %inhibition of DPPH radical=Abr-Aar/Abr×100 where Abr is the absorbance prior to reaction and Aar is the absorbance after reaction with DPPH•.
(The DPPH test is a chemical assay of radical scavenging.)

A short description of data set [4]: Hydrogen peroxide scavenging (H2O2) assay. To be noted: mean ± SEM, n = 3; read-out: H2O2 radical scavenging IC50. The method, then:
Amongst the reactive oxygen species (ROS), H2O2 is an essential radical as even though it is not lethal of its own accord, but can be changed to further even highly toxic radicals, for instance, OH^• by hypochlorous acid or Fenton reaction by the oxidases enzymes. A solution of H2O2 (40 µM) was added in phosphate buffer saline ([…] pH 7.4). Different quantities of test and references compounds in DMSO were added to 2 mL of hydrogen peroxide solution in buffer solution. Subsequently, upon to 10 min, the absorbance was calculated at 230 nm against a blank solution including phosphate buffer without H2O2 [31]. The percentage of scavenging H2O2 was estimated by the formula in this way: %ScavengingH2O2=AS-AT/Ai×100 where AS is the absorbance of control and AT is the absorbance of the test.

Data set [5] deals with T2, hMAO-B. Briefly: Enzyme kinetics of MAO-B (Lineweaver–Burk plots). The format is biochemical. The following applies: several inhibitor concentrations, tyramine substrate. The method, then:
(§1) A set of Lineweaver–Burk plots was constructed in the presence and absence of different concentrations of compound 7 and 5 for hMAO-A and hMAO-B respectively. The graph comprises of five plots, every plot raised by quantifying MAO-B and MAO-A catalytic rate at various concentrations of substrate (0.5–5.0 µM).
(§2) Kinetic constants of steady-state (Vmax, maximum rate, and Km, Michaelis constant,) were measured by studying the effects of substrate concentration on the primary rate of reaction of MAO-A or MAO-B in absence and presence of compounds at diverse concentrations. To examine the mode of action by synthesized derivatives all of them were solubilized in dimethyl sulfoxide, with the concentration of 1%, and utilized in a wide concentration range. Construction of Lineweaver–Burk plots illustrated the mode of MAO inhibition. Selectivity index SI (Ki (MAO-A)/Ki (MAO-B)) was also computed. Enzyme kinetics for the interaction of the compounds with the MAO enzymes was computed on the GraphPad Prism 7 software.

In data set [6] the target is T1, hMAO-A. The experiment in a line: Enzyme kinetics of MAO-A (Lineweaver–Burk plots). The format is biochemical. The following applies: tyramine substrate. The method, then:
as §1, §2

Data set [7] addresses T1, hMAO-A. The following applies: cited from earlier work.
The target of data set [8] is T2, hMAO-B. Details: method as in PMID 26592858. To be noted: cited from earlier work.

Regarding `O=C(/C=C/c1ccc(O)c(O)c1)OCCc1ccccc1` [CAPE, caffeic acid phenethyl ester], the “MAO-B inhibition in words” value in the data set on MAO-B was “inhibiting MAO-B”.

What is called IC50 is the point on the concentration scale where inhibition reaches its midpoint. The term melting point denotes the temperature of the solid-liquid transition. Compound `O=C(/C=C/c1ccc(O)c(O)c1)Nc1cccc2ccccc12` [Compound 5, (E)-3-(3,4-dihydroxyphenyl)-N-(naphthalen-1-yl)acrylamide] had a melting point of 176 to 176.3 °C. For the same compound, at hMAO-A [1], the Selectivity index was 4.653 and the half-maximal inhibitory concentration (IC50) came to 50.26 ± 0.035 µM. Moreover, the concentration for half-maximal inhibition (IC50) at hMAO-B [2] was determined as 10.8 ± 0.024 µM. In [3], this compound had an IC50 of 20.8 ± 0.003 µM. For the same compound, in data set [4], the IC50 was 17.64 ± 0.005 µM. Also, on hMAO-B [5], the “Vmax in Lineweaver–Burk plot (hMAO-B)” value is given as “same Vmax value at several concentrations”.

In turn, `C=CCc1ccc(OC(=O)/C=C/c2ccc(O)c(O)c2)c(OC)c1` [Compound 7, (E)-4-allyl-2-methoxyphenyl 3-(3,4-dihydroxyphenyl)acrylate] yielded a melting point of 161 to 161.7 °C. Further, at hMAO-A [1], the Selectivity index is 0.291 and the IC50 is 7.03 ± 0.022 µM. Besides, the IC50 on hMAO-B [2] is 24.14 ± 0.017 µM. Also, the IC50 in data set [3] turned out to be 11.22 ± 0.012 µM. For the same compound, the concentration for half-maximal inhibition (IC50) in [4] was 12.78 ± 0.024 µM. Also, the “Mode of inhibition (hMAO-A)” value on hMAO-A [6] is given as “competitive inhibition mode”.

Turning to `COc1cc(/C=C/C(=O)O)ccc1O` [Ferulic acid], at hMAO-A [7], the “MAO inhibition value hMAO-A” value was 7.55 ± 0.49 µM. The “MAO inhibition value hMAO-B” value on hMAO-B [8] is listed as 24.00 ± 1.98 µM.
